Source: PubChem BioAssay AID248 (DTP/NCI, 2004)
“And” between values parts separate entries of the source, which are not always exact repeats. Identical values can stand only once. Toxic doses and inconclusive results are not listed. No stated cut-off is given here; in the data, active means T/C of 150% or more; inactive means T/C below 125%.

Test system: L1210 leukemia ip in BDF1 mice, survival T/C
Assay: NCI In Vivo Anticancer Drug Screen. Data for tumor model L1210 Leukemia (intraperitoneal) in B6D2F1 (BDF1) mice
Settings: endpoint: mean survival time, higher = longer survival
How it was run: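 Value reflects the ratio of survival in compound-treated mice to survival in vehicle-treated controls, with both groups carrying the same transplanted tumor.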

[1] = dose: 100.0 mg/kg/injection, schedule: Q01DX001 (ip), vehicle: saline
[2] = dose: 200.0 mg/kg/injection, schedule: Q01DX001 (ip), vehicle: saline
[3] = dose: 100.0 mg/kg/injection, schedule: Q04DX003 (ip), vehicle: Klucel (hydroxypropylcellulose) (HPC)
[4] = dose: 200.0 mg/kg/injection, schedule: Q04DX003 (ip), vehicle: Klucel (hydroxypropylcellulose) (HPC)
[5] = dose: 400.0 mg/kg/injection, schedule: Q04DX003 (ip), vehicle: Klucel (hydroxypropylcellulose) (HPC)
[6] = dose: 400.0 mg/kg/injection, schedule: Q01DX001 (ip), vehicle: saline
[7] = dose: 100.0 mg/kg/injection, schedule: Q04DX003 (ip), vehicle: saline with Tween-80
[8] = dose: 100.0 mg/kg/injection, schedule: Q01DX001 (ip), vehicle: Klucel (hydroxypropylcellulose) (HPC)
[9] = dose: 50.0 mg/kg/injection, schedule: Q01DX001 (ip), vehicle: Klucel (hydroxypropylcellulose) (HPC)

Measured: T/C

NC(N)=N/N=C/c1ccc([N+](=O)[O-])cc1
inactive: dose: 15.0 mg/kg/injection, schedule: Q01DX Z (ip), vehicle: saline 95 % of control | dose: 30.0 mg/kg/injection, schedule: Q01DX Z (ip), vehicle: saline 95 % of control | dose: 30.0 mg/kg/injection, schedule: Q01DX Z (oral), vehicle: other 104 % of control | dose: 60.0 mg/kg/injection, schedule: Q01DX Z (ip), vehicle: saline 90 % of control | dose: 60.0 mg/kg/injection, schedule: Q01DX Z (oral), vehicle: other 100 % of control | dose: 120.0 mg/kg/injection, schedule: Q01DX Z (oral), vehicle: other 88 % of control

CC1CCCC[N-]1.CC1CCCC[N-]1.CC1CCCC[N-]1.CC1CCCC[N-]1.N#CS.[Zn+2] (stereo unspecified)
inactive: [1] 93 % of control | [2] 103 % of control

O=NN(Cc1ccccc1)NC(=O)c1ccccc1
inactive: dose: 100.0 mg/kg/injection, schedule: Q04DX002 (ip), vehicle: gum acacia 96 % of control | dose: 200.0 mg/kg/injection, schedule: Q04DX002 (ip), vehicle: gum acacia 104 % of control

O=C(Nc1ccc(Cl)cc1)C(Cl)Cl
inactive: dose: 100.0 mg/kg/injection, schedule: Q01DX009 (ip), vehicle: Klucel (hydroxypropylcellulose) (HPC) 98 % of control | [3] 100 % of control | dose: 200.0 mg/kg/injection, schedule: Q01DX009 (ip), vehicle: Klucel (hydroxypropylcellulose) (HPC) 98 % of control | [4] 100 % of control | dose: 400.0 mg/kg/injection, schedule: Q01DX009 (ip), vehicle: Klucel (hydroxypropylcellulose) (HPC) 102 % of control | [5] 102 % of control

N=Nc1ccc2c(O)c3ccccc3c(O)c2c1
inactive: dose: 100.0 mg/kg/injection, schedule: Q01DX001 (ip), vehicle: carboxymethylcellulose (CMC) 107 % of control | dose: 100.0 mg/kg/injection, schedule: Q01DX009 (ip), vehicle: carboxymethylcellulose (CMC) 100 % of control and 103 % of control | dose: 100.0 mg/kg/injection, schedule: Q04DX002 (ip), vehicle: saline 103 % of control | dose: 100.0 mg/kg/injection, schedule: Q04DX003 (ip), vehicle: carboxymethylcellulose (CMC) 101 % of control | dose: 200.0 mg/kg/injection, schedule: Q01DX001 (ip), vehicle: carboxymethylcellulose (CMC) 104 % of control | dose: 200.0 mg/kg/injection, schedule: Q01DX009 (ip), vehicle: carboxymethylcellulose (CMC) 98 % of control and 100 % of control | dose: 200.0 mg/kg/injection, schedule: Q04DX002 (ip), vehicle: saline 105 % of control and 106 % of control | dose: 200.0 mg/kg/injection, schedule: Q04DX003 (ip), vehicle: carboxymethylcellulose (CMC) 98 % of control | dose: 400.0 mg/kg/injection, schedule: Q01DX001 (ip), vehicle: carboxymethylcellulose (CMC) 105 % of control | dose: 400.0 mg/kg/injection, schedule: Q01DX009 (ip), vehicle: carboxymethylcellulose (CMC) 94 % of control and 96 % of control | dose: 400.0 mg/kg/injection, schedule: Q04DX002 (ip), vehicle: saline 97 % of control and 105 % of control | dose: 400.0 mg/kg/injection, schedule: Q04DX003 (ip), vehicle: carboxymethylcellulose (CMC) 101 % of control

c1ccc(SCc2cccnc2)nc1
inactive: [1] 97 % of control | [2] 88 % of control | [6] 94 % of control

CC(C)Cc1ccc(OC(=O)Nc2ccc(Cl)cc2)cc1
inactive: dose: 25.0 mg/kg/injection, schedule: Q04DX003 (ip), vehicle: saline with Tween-80 95 % of control | dose: 50.0 mg/kg/injection, schedule: Q04DX003 (ip), vehicle: saline with Tween-80 95 % of control | [7] 95 % of control

O=S(=O)(c1ccccc1)N1CCCCC1
inactive: [3] 100 % of control | [4] 97 % of control | [5] 100 % of control

NC(=O)c1nnc(-c2ccccn2)[nH]c1=O
inactive: [8] 93 % of control

CC(=O)OC1CC2c3ccccc3C1c1cccc[n+]12 (stereo unspecified)
inactive: dose: 12.5 mg/kg/injection, schedule: Q01DX001 (ip), vehicle: Klucel (hydroxypropylcellulose) (HPC) 97 % of control | dose: 12.5 mg/kg/injection, schedule: Q01DX009 (ip), vehicle: Klucel (hydroxypropylcellulose) (HPC) 100 % of control | dose: 25.0 mg/kg/injection, schedule: Q01DX001 (ip), vehicle: Klucel (hydroxypropylcellulose) (HPC) 101 % of control | dose: 25.0 mg/kg/injection, schedule: Q01DX009 (ip), vehicle: Klucel (hydroxypropylcellulose) (HPC) 102 % of control | dose: 25.0 mg/kg/injection, schedule: Q04DX003 (ip), vehicle: Klucel (hydroxypropylcellulose) (HPC) 101 % of control | [9] 105 % of control | dose: 50.0 mg/kg/injection, schedule: Q01DX009 (ip), vehicle: Klucel (hydroxypropylcellulose) (HPC) 104 % of control | dose: 50.0 mg/kg/injection, schedule: Q04DX003 (ip), vehicle: Klucel (hydroxypropylcellulose) (HPC) 94 % of control | dose: 75.0 mg/kg/injection, schedule: Q01DX009 (ip), vehicle: Klucel (hydroxypropylcellulose) (HPC) 88 % of control | [8] 101 % of control

c1ccc(C2=NNC(c3ccccc3)(c3ccccc3)c3ccccc32)cc1
inactive: dose: 100.0 mg/kg/injection, schedule: Q01DX001 (ip), vehicle: other 96 % of control | dose: 200.0 mg/kg/injection, schedule: Q01DX001 (ip), vehicle: other 90 % of control | dose: 400.0 mg/kg/injection, schedule: Q01DX001 (ip), vehicle: other 95 % of control

Brc1ccc2c(c1)-c1ccccc1C1=NCCN12
inactive: dose: 5.0 mg/kg/injection, schedule: Q01DX009 (ip), vehicle: Klucel (hydroxypropylcellulose) (HPC) 100 % of control | dose: 10.0 mg/kg/injection, schedule: Q01DX009 (ip), vehicle: Klucel (hydroxypropylcellulose) (HPC) 101 % of control | dose: 20.0 mg/kg/injection, schedule: Q04DX003 (ip), vehicle: Klucel (hydroxypropylcellulose) (HPC) 86 % of control

O=C(O)C1(C(=O)O)C=CCCC1
inactive: dose: 100.0 mg/kg/injection, schedule: Q01DX009 (ip), vehicle: saline + alcohol 89 % of control | [3] 100 % of control | dose: 200.0 mg/kg/injection, schedule: Q01DX009 (ip), vehicle: saline + alcohol 102 % of control | [4] 97 % of control | [5] 107 % of control

CC(C)NC(=O)C1C2C=CC(C2)C1C(=O)NC(C)C (stereo unspecified)
inactive: [7] 100 % of control | dose: 200.0 mg/kg/injection, schedule: Q04DX003 (ip), vehicle: saline with Tween-80 100 % of control | dose: 400.0 mg/kg/injection, schedule: Q04DX003 (ip), vehicle: saline with Tween-80 91 % of control

O=C1C=CC(=O)C2C3C=CC(CC3)C12 (stereo unspecified)
inactive: [1] 107 % of control | [2] 98 % of control | [6] 98 % of control

CC(=O)NC1C(OC(C)=O)OC(COC(c2ccccc2)(c2ccccc2)c2ccccc2)C(OC(C)=O)C1OC(C)=O (stereo unspecified)
inactive: [1] 108 % of control | [2] 96 % of control | [6] 96 % of control

O=c1cc(Oc2ccccc2)[nH]c(=O)[nH]1
inactive: dose: 65.0 mg/kg/injection, schedule: Q01DX001 (ip), vehicle: Klucel (hydroxypropylcellulose) (HPC) 112 % of control | dose: 130.0 mg/kg/injection, schedule: Q01DX001 (ip), vehicle: Klucel (hydroxypropylcellulose) (HPC) 93 % of control | dose: 260.0 mg/kg/injection, schedule: Q01DX001 (ip), vehicle: Klucel (hydroxypropylcellulose) (HPC) 93 % of control

O=C1OC(=O)c2cccc3cccc1c23
inactive: [9] 98 % of control | [8] 97 % of control | dose: 200.0 mg/kg/injection, schedule: Q01DX001 (ip), vehicle: Klucel (hydroxypropylcellulose) (HPC) 94 % of control | dose: 400.0 mg/kg/injection, schedule: Q01DX001 (ip), vehicle: Klucel (hydroxypropylcellulose) (HPC) 111 % of control

CC(Cl)(/N=N/C(C)(Cl)c1cccc(Cl)c1)c1ccc(Cl)cc1 (stereo unspecified)
inactive: [7] 94 % of control
